Laboratory results taken from paper PMC3905653, “Characterization of two transketolases encoded on the chromosome and the plasmid pBM19 of the facultative ribulose monophosphate cycle methylotroph Bacillus methanolicus” (BMC Microbiology, 2014).

Assays:
TKT^C = target: T1, TKT^C (Bacillus methanolicus, UniProt I3DZN5); assay: inhibition in coupled assay I; format: biochemical; conditions: effector tested at 1 and 5 mM, which one gave the value is not told; R5-P and X5-P, pH 7.5, Mn2+
T1 construct: gene tktC; full length, chromosomal gene; pET16b N-terminal His10 tag cut by factor Xa; E. coli BL21(DE3); 73 kDa, homotetramer 280 kDa; primers tktC encode start TTG-TTT-GAT-AAA-ATT-GAC-CAT (MFDKIDH) and C-terminal ALLKQ
T1 sequence (I3DZN5 entry or part of it): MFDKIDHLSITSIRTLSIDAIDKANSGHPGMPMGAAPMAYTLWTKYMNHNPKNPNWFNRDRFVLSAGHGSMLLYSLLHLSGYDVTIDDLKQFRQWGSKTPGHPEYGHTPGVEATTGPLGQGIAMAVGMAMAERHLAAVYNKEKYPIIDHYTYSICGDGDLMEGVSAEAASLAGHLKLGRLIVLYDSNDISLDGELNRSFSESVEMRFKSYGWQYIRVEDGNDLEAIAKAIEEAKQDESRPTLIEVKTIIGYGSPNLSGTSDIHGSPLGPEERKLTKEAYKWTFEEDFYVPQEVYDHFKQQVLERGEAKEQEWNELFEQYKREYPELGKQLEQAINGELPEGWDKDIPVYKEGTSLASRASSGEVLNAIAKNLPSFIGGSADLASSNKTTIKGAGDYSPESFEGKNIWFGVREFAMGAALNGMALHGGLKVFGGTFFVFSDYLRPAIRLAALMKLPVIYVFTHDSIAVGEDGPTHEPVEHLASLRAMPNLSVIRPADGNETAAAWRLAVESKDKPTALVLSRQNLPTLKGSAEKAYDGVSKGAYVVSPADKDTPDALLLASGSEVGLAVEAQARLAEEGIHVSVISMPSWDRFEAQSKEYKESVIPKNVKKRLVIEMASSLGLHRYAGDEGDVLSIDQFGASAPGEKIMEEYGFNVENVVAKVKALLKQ

TKT^P = target: T2, TKT^P (Bacillus methanolicus, UniProt Q6TV44); assay: inhibition in coupled assay I; format: biochemical; conditions: effector tested at 1 and 5 mM, which one gave the value is not told; R5-P and X5-P, pH 7.5, Mn2+
T2 construct: gene tktP; full length, plasmid pBM19 gene; pET16b N-terminal His10 tag cut by factor Xa; E. coli BL21(DE3); 73 kDa, homotetramer 280 kDa
T2 sequence (Q6TV44 entry or part of it): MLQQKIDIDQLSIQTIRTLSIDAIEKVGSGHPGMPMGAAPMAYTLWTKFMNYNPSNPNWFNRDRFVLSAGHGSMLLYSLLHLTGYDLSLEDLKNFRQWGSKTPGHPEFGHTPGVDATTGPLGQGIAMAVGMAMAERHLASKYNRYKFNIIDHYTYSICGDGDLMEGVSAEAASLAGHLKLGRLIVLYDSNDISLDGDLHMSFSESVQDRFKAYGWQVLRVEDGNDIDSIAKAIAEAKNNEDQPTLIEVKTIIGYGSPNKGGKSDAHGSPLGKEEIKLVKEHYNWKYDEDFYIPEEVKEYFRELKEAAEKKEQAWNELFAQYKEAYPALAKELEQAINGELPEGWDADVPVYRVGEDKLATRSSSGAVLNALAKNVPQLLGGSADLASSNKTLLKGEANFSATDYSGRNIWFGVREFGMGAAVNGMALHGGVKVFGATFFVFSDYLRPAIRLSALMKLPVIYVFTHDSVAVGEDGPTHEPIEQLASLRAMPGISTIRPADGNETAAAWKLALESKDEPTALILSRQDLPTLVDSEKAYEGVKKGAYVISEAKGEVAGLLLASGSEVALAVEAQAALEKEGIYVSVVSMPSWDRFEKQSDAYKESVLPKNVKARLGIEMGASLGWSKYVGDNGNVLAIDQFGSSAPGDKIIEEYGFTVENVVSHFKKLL

% inhibition (TKT^C) [%] | % inhibition (TKT^P) [%] | SMILES
95 | 65 | Nc1ncnc2c1ncn2[C@@H]1O[C@H](COP(=O)(O)OP(=O)(O)O)[C@@H](O)[C@H]1O [ADP]
75 | 65 | Nc1ncnc2c1ncn2[C@@H]1O[C@H](COP(=O)(O)OP(=O)(O)OP(=O)(O)O)[C@@H](O)[C@H]1O [ATP]
